ChEMBL document CHEMBL3232788, “1-(2-Hydroxy-2-methyl-3-phenoxypropanoyl)indoline-4-carbonitrile derivatives as potent and tissue selective androgen receptor modulators” (J Med Chem, 2014)
The source made the active and inactive calls. The rule behind the calls is not given here.

Tests used:
Androgen receptor [1] = biological target: T1, Androgen receptor (Homo sapiens, UniProt P10275); experiment: Displacement of [3H]mibolerone from full length human AR expressed in COS cells after 3.5 hrs by liquid scintillation counting; assay type: cell-based
T1 sequence (P10275 whole entry): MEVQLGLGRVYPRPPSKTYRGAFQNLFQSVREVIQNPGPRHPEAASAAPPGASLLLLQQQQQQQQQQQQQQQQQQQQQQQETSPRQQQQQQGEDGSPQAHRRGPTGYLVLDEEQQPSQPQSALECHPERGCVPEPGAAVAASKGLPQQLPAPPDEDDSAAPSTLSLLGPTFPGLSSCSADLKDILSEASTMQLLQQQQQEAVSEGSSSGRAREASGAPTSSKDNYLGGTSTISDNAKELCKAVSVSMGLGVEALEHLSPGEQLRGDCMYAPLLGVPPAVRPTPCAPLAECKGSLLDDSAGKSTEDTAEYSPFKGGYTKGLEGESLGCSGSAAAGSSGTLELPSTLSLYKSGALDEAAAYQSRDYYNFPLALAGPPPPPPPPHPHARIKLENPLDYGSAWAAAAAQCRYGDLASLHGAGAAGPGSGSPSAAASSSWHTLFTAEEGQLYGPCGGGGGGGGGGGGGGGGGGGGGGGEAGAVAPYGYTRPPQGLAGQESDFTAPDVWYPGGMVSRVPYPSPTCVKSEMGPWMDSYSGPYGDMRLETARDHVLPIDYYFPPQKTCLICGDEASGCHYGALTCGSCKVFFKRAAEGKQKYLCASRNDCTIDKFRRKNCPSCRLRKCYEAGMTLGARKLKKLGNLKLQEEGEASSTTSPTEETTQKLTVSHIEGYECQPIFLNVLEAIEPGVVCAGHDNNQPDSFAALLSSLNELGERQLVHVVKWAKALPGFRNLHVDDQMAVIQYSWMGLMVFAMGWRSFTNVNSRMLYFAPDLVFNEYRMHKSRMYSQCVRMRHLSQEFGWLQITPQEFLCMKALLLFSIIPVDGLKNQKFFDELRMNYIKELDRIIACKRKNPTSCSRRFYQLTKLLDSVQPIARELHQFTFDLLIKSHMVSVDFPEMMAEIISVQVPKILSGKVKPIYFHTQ

Androgen receptor [2] = biological target: T1, Androgen receptor; experiment: Agonist activity at human AR expressed in CV1 cells after 17 hrs by luciferase reporter gene assay; assay type: cell-based, CV-1
Androgen receptor [3] = biological target: T1, Androgen receptor; experiment: Binding affinity to human AR NTD (1 to 561 aa) expressed in CV1 cells coexpressing human AR-LBD (644-919 aa) assessed as N/C-termini interaction by androgenic assay; assay type: cell-based, CV-1
Rattus norvegicus [4] = experiment: Increase in levator ani muscle weight in orchidectomized Sprague-Dawley rat at 1 mg/kg, sc qd for 4 days relative to vehicle-treated control; assay type: functional, organism-based; parameters: dose 1 mg/kg
Rattus norvegicus [5] = experiment: Increase in prostate tissue weight in orchidectomized Sprague-Dawley rat at 1 mg/kg, sc qd for 4 days relative to vehicle-treated control; assay type: ADME, organism-based, Prostate gland; parameters: dose 1 mg/kg, route subcutaneous; settings: in vivo, 96 h
Rattus norvegicus [6] = experiment: Increase in seminal vesicle weight in orchidectomized Sprague-Dawley rat at 1 mg/kg, sc qd for 4 days relative to vehicle-treated control; assay type: ADME, organism-based; parameters: dose 1 mg/kg, route subcutaneous; settings: in vivo, 96 h

| SMILES | IC50 (Androgen receptor [1]) | EC50 (Androgen receptor [2]) | EC50 (Androgen receptor [3]) | Activity (Rattus norvegicus [4]) | Activity (Rattus norvegicus [5]) | Activity (Rattus norvegicus [6]) |
| --- | --- | --- | --- | --- | --- | --- |
| C[C@](O)(COc1ccc(C(F)(F)F)cc1)C(=O)N1CCc2c(C#N)cccc21 | 33.1 nM | 1.8 nM | > 10000 nM | – | – | – |
| COc1cc(Cl)ccc1OC[C@](C)(O)C(=O)N1CCc2c(C#N)cccc21 | 366 nM | 17.1 nM | > 10000 nM | – | – | – |
| CCC(=O)O[C@H]1CC[C@H]2[C@@H]3CCC4=CC(=O)CC[C@]4(C)[C@H]3CC[C@]12C [TESTOSTERONE PROPIONATE] | – | – | – | Active | Toxic | Toxic |
| C[C@](O)(COc1ccc(Br)cc1F)C(=O)N1CCc2c(C#N)cccc21 | 36.8 nM | 0.11 nM | 0.93 nM | – | – | – |
| C[C@](O)(COc1ccc(-c2cocn2)cc1)C(=O)N1CCc2c(C#N)cccc21 | 179 nM | 7.2 nM | > 10000 nM | – | – | – |
| C[C@](O)(COc1ccccc1)C(=O)N1CCc2c(C#N)cccc21 | 99.5 nM | 689 nM | > 10000 nM | – | – | – |
| C[C@](O)(COc1cccc(Cl)c1)C(=O)N1CCc2c(C#N)cccc21 | 107 nM | 275 nM | > 10000 nM | – | – | – |
| C[C@](O)(COc1ccc(C#N)cc1)C(=O)N1CCc2c(C#N)cccc21 | 16.4 nM | 1.8 nM | 71.8 nM | – | – | – |
| C[C@](O)(COc1ccc(C#N)cc1F)C(=O)N1CCc2c(C#N)cccc21 | 3.2 nM | 0.039 nM | 0.14 nM | – | – | – |
| C[C@](O)(COc1ccc(Cl)cc1)C(=O)N1CCc2c(C#N)cccc21 | 36.5 nM | 3.4 nM | 172 nM | – | – | – |
| COC(=O)c1ccc(OC[C@](C)(O)C(=O)N2CCc3c(C#N)cccc32)cc1 | 133 nM | 6.8 nM | > 10000 nM | – | – | – |
| COc1cc(C#N)ccc1OC[C@](C)(O)C(=O)N1CCc2c(C#N)cccc21 | 16.1 nM | 7.6 nM | 2120 nM | – | – | – |
| C[C@](O)(COc1ccccc1C(F)(F)F)C(=O)N1CCc2c(C#N)cccc21 | 60.9 nM | 1.7 nM | 372 nM | – | – | – |
| C[C@](O)(COc1ccc(F)cc1Br)C(=O)N1CCc2c(C#N)cccc21 | 11.4 nM | 0.4 nM | 39.5 nM | – | – | – |
| C[C@](O)(COc1ccc(C#N)cc1Br)C(=O)N1CCc2c(C#N)cccc21 | 4.8 nM | 0.06 nM | 0.41 nM | – | – | – |
| C[C@](O)(COc1cccc(F)c1)C(=O)N1CCc2c(C#N)cccc21 | 34.2 nM | 37.4 nM | 1530 nM | – | – | – |
| C[C@](O)(COc1ccccc1F)C(=O)N1CCc2c(C#N)cccc21 | 10.1 nM | 14.8 nM | > 10000 nM | – | – | – |
| C[C@](O)(COc1ccc(Br)cc1)C(=O)N1CCc2c(C#N)cccc21 | 2.4 nM | 0.34 nM | 7.6 nM | – | – | – |
| C[C@](O)(COc1ccc(Cl)cc1F)C(=O)N1CCc2c(C#N)cccc21 | 5 nM | 0.28 nM | 0.85 nM | – | – | – |
| C[C@](O)(COc1ccc(F)cc1C#N)C(=O)N1CCc2c(C#N)cccc21 | 9.1 nM | 0.074 nM | 0.74 nM | – | – | – |
| C[C@](O)(COc1ccccc1C#N)C(=O)N1CCc2c(C#N)cccc21 | 14.3 nM | 0.15 nM | 0.77 nM | – | – | – |
| C[C@](O)(COc1ccc(Cl)cc1Cl)C(=O)N1CCc2c(C#N)cccc21 | 9.1 nM | 0.25 nM | 1.4 nM | – | – | – |
| Cc1cc(F)ccc1OC[C@](C)(O)C(=O)N1CCc2c(C#N)cccc21 | 10.7 nM | 1.1 nM | 72.2 nM | – | – | – |
| C[C@](O)(COc1ccccc1Cl)C(=O)N1CCc2c(C#N)cccc21 | 56.3 nM | 6.1 nM | 4820 nM | – | – | – |
| COc1ccc(OC[C@](C)(O)C(=O)N2CCc3c(C#N)cccc32)c(F)c1 | 427 nM | 2.9 nM | > 10000 nM | – | – | – |
| COc1ccc(OC[C@](C)(O)C(=O)N2CCc3c(C#N)cccc32)c(Cl)c1 | 3.5 nM | 0.61 nM | 54.1 nM | – | – | – |
| COc1ccc(OC[C@](C)(O)C(=O)N2CCc3c(C#N)cccc32)cc1 | 146 nM | 8.6 nM | 624 nM | – | – | – |
